# Data taken from patent USRE40707E1, “Use of carbazole compounds for the treatment of congestive heart failure” (SB Pharmco Puerto Rico Inc., priority 1995, dated 2009).
# Where two headings read alike, the source gives them in different places.
# How the values were obtained:
# patients with CHF [1] = conditions: treatment of CHF; cited from earlier work
# [2] = test system: acute myocardial infarction; conditions: porcine model of acute myocardial infarction; cited from earlier work
# [3] = test system: acute myocardial infarction; conditions: canine model of acute myocardial infarction; cited from earlier work
# [4] = test system: acute myocardial infarction; conditions: rat model of acute myocardial infarction; cited from earlier work
# patients with CHF [5] = experiment: U.S. Carvedilol Heart Failure Trials: mortality studies in CHF patients; format: in vivo, human; conditions: for Risk reduction of mortality / Risk reduction, All Cause Mortality: vs placebo; for All Cause Mortality (%) / Risk reduction, All Cause Mortality: all patients; for All Cause Mortality (%): class II-IV CHF, intention-to-treat, placebo 8.2%; for Risk reduction, All Cause Mortality: 95% CI 42-81
# Description: To determine if β-adrenergic blockade might inhibit the deleterious effects of the sympathetic nervous system on survival in heart failure (CHF), 1052 patients with CHF were prospectively enrolled into a multicenter trial program, in which the patients were randomly assigned (double-blind) to 6-12 months' treatment with placebo (PBO) or carvedilol (CRV). After a common screening period, patients with class II-IV CHF (see next paragraph for the definitions of the classification of CI) and an ejection fraction <0.35 were assigned to one of four protocols based on performance on a 6-minute walk test. PBO or CRV was added to existing therapy with digoxin, diuretics and an ACE inhibitor. All-cause mortality was monitored by a prospectively constituted Data and Safety Monitoring Board (DSMB). After 25 months of enrollment, the DSMB recommended termination of the program because of a favorable effect of CRV on survival. By […], mortality was 8.2% in the PBO group but only 2.9% in the CRV group (P=0.0001. Cochran-Mantel-Haensel analysis). This represented a reduction in risk of death by CRV of 67% (95% CI: 42% to 81%). The treatment effect was similar in patients with class II and class III-IV symptoms. Mortality was reduced in class II patients from 5.9% to 1.9%, a 68% reduction (95% CI: 20% to 97%) [P=0.015,), and in class III-IV patients from 11.0% to 4.2%. a 67% reduction (95% CI 30% to 84%), [P=0.004, a log-rank]. Importantly, the effect of CRV was similar in ischematic heart disease (risk reduced by 67%. P=0.003) and in nonischemic dilated cardiomyopathy (risk reduced by 67%. P=0.014). […] The treatment effect is seen across a broad range of severity and etiology of disease.
# Patients on background therapy with diuretics. ACE inhibitors and/or digoxin were stratified on the basis of baseline […] exercise performance, into one of four trials: • study 220, a dose response study in moderate (NYHA II-IV) CHF with exercise testing as a primary endpoint • study 221, a dose titration study in moderate (NYHA II-IV) CI with exercise testing as a primary endpoint • study 239, a dose titration study in severe (NYHA III-IV) CHF with quality of life as a primary endpoint • study 240, a dose titration study in mild (NYHA II—III) CHF with progression of CHF as a primary endpoint
# Sixty-four centers in the US participated in the trial program. All sites conducted protocols 239 and 240, while 33 performed protocol 220 and 31 performed protocol 221.
# Although each trial had its own individual objectives, the overall program objective defined prospectively was evaluation of all-cause mortality. Based upon a projected enrollment of 1100 patients, the program had 90% power to detect a 50% reduction in mortality (two-sided) between carvedilol and placebo, assuming a mortality rate in the placebo group of 12% over the duration of the trials (α=0.05).
# Randomization was preceded by a screening and challenge period common to the four protocols. The purpose of the screening period was to quality patients for study entry obtain reproducible baseline measurements, and stratify patients into the appropriate trial based on submaximal exercise testing. During the challenge period, patients received low-dose open-label carvedilol (6.25 mg b.i.d.) for two weeks. […] Patients tolerating low-dose carvedilol were then randomized to blinded medication (carvedilol or placebo) with the dose titrated over several weeks in the range of 6.25 to 50 mg b.i.d. (or equivalent level of placebo). The maintenance phase of each study ranged from six to 12 months, after which patients had the option of receiving open-label carvedilol in an extension study.
# The analysis presented below corresponds to the data set on which the DSMB made the recommendation to terminate the trials. Included in this […] analysis are all patients enrolled in the US trials as of Jan. 20, […]; 624 receiving carvedilol and 356 placebo. […]
smiles,measurement,setting,value
CC(C)NCC(O)COc1ccc(COCCOC(C)C)cc1 (centres unmarked) [bisoprolol],"mortality, drug-treated vs placebo-treated patients",patients with CHF [1],no difference in mortality
COc1ccccc1OCCNCC(O)COc1cccc2[nH]c3ccccc3c12 (centres unmarked) [Carvedilol],infarct size,[2],markedly reduces infarct size
same,infarct size,[3],markedly reduces infarct size
same,infarct size,[4],markedly reduces infarct size
same,Risk reduction of mortality,"patients with CHF [5]; Class II CHF, 95% CI 20-97",68%
same,Risk reduction of mortality,"patients with CHF [5]; Class II CHF, 95% CI 20-97, listed as CRV",68%
same,Mortality (%),"patients with CHF [5]; Class II CHF, placebo 5.9%",(1.9%)
same,Mortality (%),"patients with CHF [5]; Class II CHF, placebo 5.9%, listed as CRV",1.9%
same,Risk reduction of mortality,"patients with CHF [5]; Class III-IV CHF, 95% CI 30-84",66%
same,Risk reduction of mortality,"patients with CHF [5]; Class III-IV CHF, 95% CI 30-84, listed as CRV",67%
same,Mortality (%),"patients with CHF [5]; Class III-IV CHF, placebo 11.0%",(4.2%)
same,Mortality (%),"patients with CHF [5]; Class III-IV CHF, placebo 11.0%, listed as CRV",4.2%
same,Risk reduction of mortality,"patients with CHF [5]; Ischemic Etiology, 95% CI 32-85",67%
same,Risk reduction of mortality,"patients with CHF [5]; Ischemic Etiology, 95% CI 32-85, listed as CRV",67%
same,Mortality (%),"patients with CHF [5]; Ischemic Etiology, placebo 8.9%",(3.2%)
same,Risk reduction of mortality,"patients with CHF [5]; Non-Ischemic Etiology, 95% CI 20-86",67%
same,Risk reduction of mortality,"patients with CHF [5]; Non-Ischemic Etiology, 95% CI 20-86, listed as CRV",67%
same,Mortality (%),"patients with CHF [5]; Non-Ischemic Etiology, placebo 7.3%",(2.5%)
same,All Cause Mortality (%),patients with CHF [5],(2.9%)
same,All Cause Mortality (%),patients with CHF [5]; listed as CRV,2.9%
same,"Risk reduction, All Cause Mortality",patients with CHF [5],67%
same,"Risk reduction, All Cause Mortality",patients with CHF [5]; listed as CRV,67%
COCCc1ccc(OCC(O)CNC(C)C)cc1 (centres unmarked) [metoprolol],"mortality, drug-treated vs placebo-treated patients",patients with CHF [1],no difference in mortality
